# Assay results reported in PubChem BioAssay AID1963860 (Molecular Pharmacology Branch, DTP, NCI, 2024).
# Tested on: CN0375-F725-PDC KRAS spheroid viability
# Experiment: Anticancer human tumor CN0375-F725-PDC patient-derived colon carcinoma cell line growth inhibition [KRAS2]
# Conditions: spheroids with HUVEC and MSC; for viability, T/C: stronger effect = lower value
# In short: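 KRAS-mutant tumor cells were grown as spheroids with HUVEC endothelial cells and human MSCs as stroma. Targeted agents were tested alone and with KRAS pathway inhibitors. Doses started at or near clinical Cmax, or 10 microM, descending half-log.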
# [1] = curve of first compound, second compound 0.1 µM
# [2] = curve of first compound, second compound 0.316 µM
# [3] = curve of first compound, second compound 1 µM
# [4] = curve of first compound, second compound 3.16 µM
# [5] = curve of first compound, second compound 10 µM
# [6] = second compound 0.1 µM, first compound 0.0316 µM
# [7] = second compound 0.1 µM, first compound 0.1 µM
# [8] = second compound 0.316 µM, first compound 0.0316 µM
# [9] = second compound 0.316 µM, first compound 0.1 µM
# [10] = second compound 1 µM, first compound 0.0316 µM
# [11] = second compound 1 µM, first compound 0.1 µM
# [12] = second compound 3.16 µM, first compound 0.0316 µM
# [13] = second compound 3.16 µM, first compound 0.1 µM
# [14] = second compound 10 µM, first compound 0.0316 µM
# [15] = second compound 10 µM, first compound 0.1 µM
# [16] = second compound 0.1 µM, first compound 0.316 µM
# [17] = second compound 0.1 µM, first compound 1 µM
# [18] = second compound 0.1 µM, first compound 3.16 µM
# [19] = second compound 0.1 µM, first compound 10 µM
# [20] = second compound 0.316 µM, first compound 0.316 µM
# [21] = second compound 0.316 µM, first compound 1 µM
# [22] = second compound 0.316 µM, first compound 3.16 µM
# [23] = second compound 0.316 µM, first compound 10 µM
# [24] = second compound 1 µM, first compound 0.316 µM
# [25] = second compound 1 µM, first compound 1 µM
# [26] = second compound 1 µM, first compound 3.16 µM
# [27] = second compound 1 µM, first compound 10 µM
# [28] = second compound 3.16 µM, first compound 0.316 µM
# [29] = second compound 3.16 µM, first compound 1 µM
# [30] = second compound 3.16 µM, first compound 3.16 µM
# [31] = second compound 3.16 µM, first compound 10 µM
# [32] = second compound 10 µM, first compound 0.316 µM
# [33] = second compound 10 µM, first compound 1 µM
# [34] = second compound 10 µM, first compound 3.16 µM
# [35] = second compound 10 µM, first compound 10 µM
# 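Note: spheroids exposed to agents for 7 days.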
smiles,measurement,setting,value
CN(C)C/C=C/C(=O)Nc1cc2c(Nc3ccc(F)c(Cl)c3)ncnc2cc1O[C@H]1CCOC1 + COc1cc2nc(C)nc(NC(C)c3cc(N)cc(C(F)(F)F)c3)c2cc1OC1CCOC1,IC50,[1],> 100 nM
same,IC50,[2],> 100 nM
same,IC50,[3],> 100 nM
same,IC50,[4],> 100 nM
same,IC50,[5],> 100 nM
same,"viability, T/C","second compound 0.1 µM, first compound 0.000316 µM",102%
same,"viability, T/C","second compound 0.1 µM, first compound 0.001 µM",92.6%
same,"viability, T/C","second compound 0.1 µM, first compound 0.00316 µM",85.7%
same,"viability, T/C","second compound 0.1 µM, first compound 0.01 µM",83.7%
same,"viability, T/C",[6],84.8%
same,"viability, T/C",[7],77.9%
same,"viability, T/C","second compound 0.316 µM, first compound 0.000316 µM",96%
same,"viability, T/C","second compound 0.316 µM, first compound 0.001 µM",92.5%
same,"viability, T/C","second compound 0.316 µM, first compound 0.00316 µM",86.4%
same,"viability, T/C","second compound 0.316 µM, first compound 0.01 µM",85.7%
same,"viability, T/C",[8],78.1%
same,"viability, T/C",[9],79.3%
same,"viability, T/C","second compound 1 µM, first compound 0.000316 µM",91.9%
same,"viability, T/C","second compound 1 µM, first compound 0.001 µM",94.6%
same,"viability, T/C","second compound 1 µM, first compound 0.00316 µM",87.3%
same,"viability, T/C","second compound 1 µM, first compound 0.01 µM",82.7%
same,"viability, T/C",[10],81.6%
same,"viability, T/C",[11],78.1%
same,"viability, T/C","second compound 3.16 µM, first compound 0.000316 µM",77.3%
same,"viability, T/C","second compound 3.16 µM, first compound 0.001 µM",71.5%
same,"viability, T/C","second compound 3.16 µM, first compound 0.00316 µM",71.8%
same,"viability, T/C","second compound 3.16 µM, first compound 0.01 µM",66.1%
same,"viability, T/C",[12],66.5%
same,"viability, T/C",[13],65.8%
same,"viability, T/C","second compound 10 µM, first compound 0.000316 µM",65.5%
same,"viability, T/C","second compound 10 µM, first compound 0.001 µM",70.1%
same,"viability, T/C","second compound 10 µM, first compound 0.00316 µM",68.2%
same,"viability, T/C","second compound 10 µM, first compound 0.01 µM",47%
same,"viability, T/C",[14],60.6%
same,"viability, T/C",[15],63.7%
O=C(c1cc(Cc2n[nH]c(=O)c3ccccc23)ccc1F)N1CCN(C(=O)C2CC2)CC1 + COc1cc2nc(C)nc(NC(C)c3cc(N)cc(C(F)(F)F)c3)c2cc1OC1CCOC1,IC50,[1],> 10000 nM
same,IC50,[2],> 10000 nM
same,IC50,[3],> 10000 nM
same,IC50,[4],> 10000 nM
same,IC50,[5],> 10000 nM
same,"viability, T/C",[6],105%
same,"viability, T/C",[7],106%
same,"viability, T/C",[16],98.4%
same,"viability, T/C",[17],107%
same,"viability, T/C",[18],98.2%
same,"viability, T/C",[19],106%
same,"viability, T/C",[8],102%
same,"viability, T/C",[9],103%
same,"viability, T/C",[20],97.8%
same,"viability, T/C",[21],98.8%
same,"viability, T/C",[22],98.8%
same,"viability, T/C",[23],93.2%
same,"viability, T/C",[10],111%
same,"viability, T/C",[11],107%
same,"viability, T/C",[24],99%
same,"viability, T/C",[25],97.8%
same,"viability, T/C",[26],107%
same,"viability, T/C",[27],93.5%
same,"viability, T/C",[12],92.8%
same,"viability, T/C",[13],95.4%
same,"viability, T/C",[28],85.8%
same,"viability, T/C",[29],84.6%
same,"viability, T/C",[30],84.9%
same,"viability, T/C",[31],71.5%
same,"viability, T/C",[14],82.2%
same,"viability, T/C",[15],81.4%
same,"viability, T/C",[32],79.3%
same,"viability, T/C",[33],69.9%
same,"viability, T/C",[34],104%
same,"viability, T/C",[35],98%
COC(=O)c1ccc2c(C(=Nc3ccc(N(C)C(=O)CN4CCN(C)CC4)cc3)c3ccccc3)c(O)[nH]c2c1 + CNCc1ccccc1-c1csc(C(C)Nc2nc(C)nc3cc(OC)c(OC)cc23)c1,IC50,[1],3220 nM
same,IC50,[2],1570 nM
same,IC50,[3],3840 nM
same,IC50,[4],< 31.6 nM
same,IC50,[5],< 31.6 nM
same,"viability, T/C",[6],95.2%
same,"viability, T/C",[7],95.4%
same,"viability, T/C",[16],86.6%
same,"viability, T/C",[17],83.5%
same,"viability, T/C",[18],50.3%
same,"viability, T/C",[19],0.35%
same,"viability, T/C",[8],94.7%
same,"viability, T/C",[9],88%
same,"viability, T/C",[20],84.3%
same,"viability, T/C",[21],73.1%
same,"viability, T/C",[22],14.9%
same,"viability, T/C",[23],0.2%
same,"viability, T/C",[10],84.7%
same,"viability, T/C",[11],87.9%
same,"viability, T/C",[24],77.3%
same,"viability, T/C",[25],68%
same,"viability, T/C",[26],65%
same,"viability, T/C",[27],0.24%
same,"viability, T/C",[12],1%
same,"viability, T/C",[13],0.73%
same,"viability, T/C",[28],0.68%
same,"viability, T/C",[29],1.02%
same,"viability, T/C",[30],0.63%
same,"viability, T/C",[31],0.32%
same,"viability, T/C",[14],0.63%
same,"viability, T/C",[15],0.51%
same,"viability, T/C",[32],0.5%
same,"viability, T/C",[33],0.37%
same,"viability, T/C",[34],0.61%
same,"viability, T/C",[35],0.3%
CC1(C)CCC(CN2CCN(c3ccc(C(=O)NS(=O)(=O)c4ccc(NCC5CCOCC5)c([N+](=O)[O-])c4)c(Oc4cnc5[nH]ccc5c4)c3)CC2)=C(c2ccc(Cl)cc2)C1 + COc1cc2nc(C)nc(NC(C)c3cc(N)cc(C(F)(F)F)c3)c2cc1OC1CCOC1,IC50,[1],6370 nM
same,IC50,[2],5610 nM
same,IC50,[3],2800 nM
same,IC50,[4],2080 nM
same,IC50,[5],< 31.6 nM
same,"viability, T/C",[6],99.9%
same,"viability, T/C",[7],100%
same,"viability, T/C",[16],92.4%
same,"viability, T/C",[17],97.4%
same,"viability, T/C",[18],66.2%
same,"viability, T/C",[19],39.6%
same,"viability, T/C",[8],93.7%
same,"viability, T/C",[9],100%
same,"viability, T/C",[20],94.3%
same,"viability, T/C",[21],93.7%
same,"viability, T/C",[22],59.4%
same,"viability, T/C",[23],40.6%
same,"viability, T/C",[10],93.1%
same,"viability, T/C",[11],88%
same,"viability, T/C",[24],94.6%
same,"viability, T/C",[25],87.5%
same,"viability, T/C",[26],45.6%
same,"viability, T/C",[27],27.2%
same,"viability, T/C",[12],81.4%
same,"viability, T/C",[13],85.4%
same,"viability, T/C",[28],91.8%
same,"viability, T/C",[29],74.6%
same,"viability, T/C",[30],36%
same,"viability, T/C",[31],28.6%
same,"viability, T/C",[14],11.2%
same,"viability, T/C",[15],14.5%
same,"viability, T/C",[32],19%
same,"viability, T/C",[33],26.2%
same,"viability, T/C",[34],27.2%
same,"viability, T/C",[35],18.3%
CN(C)C/C=C/C(=O)Nc1cc2c(Nc3ccc(F)c(Cl)c3)ncnc2cc1O[C@H]1CCOC1,"viability, T/C",compound 0.000316 µM,105% [middle of 5 runs]
same,"viability, T/C",compound 0.001 µM,94.1% [middle of 5 runs]
same,"viability, T/C",compound 0.00316 µM,90.4% [middle of 5 runs]
same,"viability, T/C",compound 0.01 µM,88.3% [middle of 5 runs]
same,"viability, T/C",compound 0.0316 µM,79.2% [middle of 5 runs]
same,"viability, T/C",compound 0.1 µM,81.1% [middle of 5 runs]
same,IC50,curve of compound,> 100 nM
